Source: US9399644B2, “[1,3] dioxolo [4,5-G] quinoline-6(5H)thione derivatives as inhibitors of the late SV40 factor (LSF) for use in treating cancer” (TRUSTEES OF BOSTON UNIVERSITY, priority 2011, dated 2016)

Assays:
LSF = molecular target: T1, LSF (Homo sapiens, UniProt Q12800); test: LSF-dependent reporter assay (dual luciferase); format: cell-based; conditions: for LSF inhibition (result in words): NIH 3T3 cells transfected with LSF expression vector and LSF-driven firefly luciferase reporter, FIGS. 5-7
T1 construct: expressed in transfected cells; host or cells: NIH 3T3 cells
T1 sequence (Q12800 1-502): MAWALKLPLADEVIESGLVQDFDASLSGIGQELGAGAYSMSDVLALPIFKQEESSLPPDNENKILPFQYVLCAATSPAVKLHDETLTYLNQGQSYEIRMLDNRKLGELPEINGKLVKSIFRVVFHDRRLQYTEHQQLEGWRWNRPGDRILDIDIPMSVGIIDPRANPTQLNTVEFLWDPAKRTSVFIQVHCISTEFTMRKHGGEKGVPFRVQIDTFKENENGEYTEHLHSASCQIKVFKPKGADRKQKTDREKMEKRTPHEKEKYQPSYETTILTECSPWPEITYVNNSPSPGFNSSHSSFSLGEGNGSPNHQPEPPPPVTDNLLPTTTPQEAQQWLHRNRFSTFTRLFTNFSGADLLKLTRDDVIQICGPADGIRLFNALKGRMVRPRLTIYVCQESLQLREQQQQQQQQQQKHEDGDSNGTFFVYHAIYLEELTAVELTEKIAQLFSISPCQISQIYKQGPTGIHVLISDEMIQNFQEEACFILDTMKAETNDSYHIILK
Procedure: NIH 3T3 cells were transfected with the expression construct pEF1α-LSF, an LSF expression vector^1,2; the reporter construct pGL3B-WT4E1b, a firefly luciferase reporter vector driven by LSF^3; phRL-TK, a control renilla luciferase reporter vector; and pEFGP, essentially as previously described^3. Five hours after transfection, either vehicle (DMSO) or compounds (VI, I and II, IV and V) were added (FIG. 7, FIG. 5 and FIG. 6, respectively), keeping DMSO at 0.5%. Cell extracts were harvested 36 hours post-transfection and firefly and renilla luciferase activities measured via a dual luciferase assay (Promega). Five μl of extract was mixed with 30 μl of luciferase assay reagent (Promega), and luminescence measured for 10 seconds using a 20/20n luminometer (Turner Biosystems). Subsequently, 30 μl of Stop & Glo reagent (Promega) was added, and luminescence also measured for 10 seconds. LSF transactivation activity is given as relative luciferase activity, the ratio of firefly to renilla activities, and normalized to the relative luciferase activity in the presence of vehicle alone. Data for this assay are shown in graphically in FIGS. 5-7.

[1] = test system: hepatocellular carcinoma (HCC); conditions: single treatment; cited from earlier work

LSF inhibition (result in words) (LSF) | SMILES | other results
exhibit properties as LSF inhibitors | CCOc1ccccc1-c1cc(=S)[nH]c2cc3c(cc12)OCO3 [Compound III, 8-(2-ethoxyphenyl)-[1,3]dioxolo[4,5-g]quinolin-6(5H)-thione] | –
exhibit properties as LSF inhibitors | CCOc1ccccc1[C@H]1CC(=S)Nc2cc3c(cc21)OCO3 [Compound II] | –
– | CNC(=O)c1cc(Oc2ccc(NC(=O)Nc3ccc(Cl)c(C(F)(F)F)c3)cc2)ccn1 [sorafenib] | increase of survival [1]: 2-3 months
exhibit properties as LSF inhibitors | CCOc1ccccc1[C@@H]1Cc2nncn2-c2cc3c(cc21)OCO3 [IV] | –
exhibit properties as LSF inhibitors | CCOc1ccccc1[C@H]1Cc2nncn2-c2cc3c(cc21)OCO3 [Compound V] | –
particularly strong LSF inhibitors | CCOc1ccccc1C1CC(=S)Nc2cc3c(cc21)OCO3 (racemic) [racemic mixture of compounds I and II, 8-(2-ethoxyphenyl)-7,8-dihydro-[1,3]dioxolo[4,5-g]quinoline-6(5H)-thione] | effectiveness as LSF inhibitor compared with the racemic mixture of compounds IV and V (FIG. 6) and Compound VI (FIG. 7) (LSF; FIG. 5 versus FIG. 6 and FIG. 7): about 10 times; rank among LSF inhibitors observed by the applicants (LSF; experiments thus far performed by the applicants): strongest LSF inhibitor so far observed
exhibit properties as LSF inhibitors | CCOc1ccccc1[C@@H]1CC(=S)Nc2cc3c(cc21)OCO3 [Compound I] | –
